Patent publication US20050272784A1 (priority 2004, published 2005)

What follows are compounds tested on SPI1 type III protein secretion system (SopE'-'Bla secretion) (assay: Primary assay: Type III protein secretion of the chimeric SopE'-'Bla polypeptide by Salmonella enterica). Details: read-out: SopE IC50.
Type: cell-based
Description: Primary assay: Type III protein secretion of the chimeric SopE′-'Bla polypeptide by Salmonella enterica. This procedure is a cell-based assay that measures the type III-dependent secretion by Salmonella enterica of a plasmid-encoded chimeric polypeptide whose synthesis can be regulated, and which is endowed with an enzymatic activity that can be monitored […] by hydrolysis of a substrate that is unable to penetrate into the bacterial cytoplasm within the time constraints of the reaction. Thus, the colorimetric reaction is not influenced by SopE′-'Bla polypeptide in the bacterial cytoplasm. Instead, it effectively measures the amount of polypeptide that has been secreted from the S. enterica cytoplasm to the extracellular medium via type III system protein secretion.
The SopE′-' Bla recombinant polypeptide consists of two functionally distinct domains spliced together. The N-terminus domain is encoded by a polynucleotide region specifying the signal for type III secretion of the SopE polypeptide of S. enterica, an effector of the SPI1 type III protein secretion system. The C-terminus domain of SopE′-'Bla consists of a 263 amino acid peptide sequence that corresponds to the TEM-1 β-lactamase expressed by plasmid pBR322 but without its N-terminal signal sequence. The TEM-1 β-lactamase part of the SopE′-'Bla chimeric polypeptide is used as a reporter enzyme. It is capable of hydrolyzing nitrocefin resulting in a product whose accumulation can be monitored by colorimetric detection. The secretion of the SopE′-'Bla chimeric polypeptide from the cytoplasm to the extracellular medium is dependent on type III protein secretion.
For this procedure, cells grown under conditions known to favor a functional SPI1 secretion system are induced for expression of the SopE′-'Bla protein and grown either in the presence or in the absence of putative inhibitors for determined time. Nitrocefin is then added to the various cultures and its hydrolysis are used for quantitation. An inhibitor of Type III protein secretion is generally a compound that reduces the signal of the enzymatic reaction by decreasing the amount of SopE′-'Bla secreted into the extracellular medium.

**Q.** O=C(N[C@@H](CSCc1ccccc1)C(=O)O)c1nc(-c2ccc(Oc3ccccc3)cc2)oc1-c1cnc(Cl)c(Cl)c1 [Compound 39, (R)-3-Benzylsulfanyl-2-{[5-(5,6-dichloropyridin-3-yl)-2-(4-phenoxyphenyl)oxazole-4-carbonyl]amino}propionic acid] was tested. Which IC50 did it give?
**A.** 9.1 µM

**Q.** With O=C(N[C@@H](CSCc1ccccc1)C(=O)O)c1nc(-c2ccc(C(F)(F)F)cc2)sc1-c1ccc(-c2ccccc2)cc1 [Compound 2, (R)-3-Benzylsulfanyl-2-{[5-biphenyl-4-yl-2-(4-trifluoromethylphenyl)thiazole-4-carbonyl]amino}propionic acid] as the compound, how does the IC50 read?
**A.** 16.5 µM

**Q.** For O=C(NC(Cc1ccc(Cl)cc1)C(=O)O)c1cc(-c2ccc(-c3ccccc3)cc2)nn1-c1cccc(C(F)(F)F)c1 (centres unmarked) [Compound 74, 2-{[5-Biphenyl-4-yl-2-(3-trifluoromethylphenyl)-2H-pyrazole-3-carbonyl]amino}-3-(4-chlorophenyl)propionic acid], which IC50 is on record?
**A.** 1.5 µM

**Q.** For O=C(N[C@@H](CSCc1ccccc1)C(=O)O)c1nc(-c2ccc(C(F)(F)F)cc2)oc1-c1ccc(-c2nccs2)cc1 [Compound 21, (R)-3-Benzylsulfanyl-2-{[5-(4-thiazol-2-yl-phenyl)-2-(4-trifluoromethylphenyl)oxazole-4-carbonyl]amino}propionic acid], which IC50 is on record?
**A.** 3.1 µM

**Q.** For O=C(N[C@@H](COCc1ccccc1)C(=O)O)c1nc(-c2ccc(-c3ccccc3)cc2)oc1-c1ccc(Cl)c(Cl)c1 [Compound 6, (S)-3-Benzyloxy-2-{[2-biphenyl-4-yl-5-(3,4-dichlorophenyl)oxazole-4-carbonyl]amino}propionic acid], which IC50 is on record?
**A.** 25.6 µM

**Q.** For O=C(NC(Cc1ccc(Cl)cc1)C(=O)O)c1nc(-c2ccc(C(F)(F)F)cc2)oc1-c1cnc2ccccc2n1 (centres unmarked) [Compound 54, 3-(4-Chlorophenyl)-2-{[5-quinoxalin-2-yl-2-(4-trifluoromethylphenyl)oxazole-4-carbonyl]amino}propionic acid], which IC50 is on record?
**A.** 49.4 µM

**Q.** Which IC50 does the source give for O=C(NC(Cc1ccc(Cl)cc1)C(=O)O)c1nc(-c2ccc(Oc3ccccc3)cc2)oc1-c1ccc(Cl)nc1Cl (centres unmarked) [Compound 38, 3-(4-Chlorophenyl)-2-{[5-(2,6-dichloropyridin-3-yl)-2-(4-phenoxyphenyl)oxazole-4-carbonyl]amino}propionic acid] here?
**A.** 2.4 µM

**Q.** With O=C(NC(Cc1ccc(Cl)cc1)C(=O)O)c1cc(-c2ccc(-c3ccccc3)cc2)nn1-c1ccc(Cl)c(Cl)c1 (centres unmarked) [Compound 75, 2-{[5-Biphenyl-4-yl-2-(3,4-dichlorophenyl)-2H-pyrazole-3-carbonyl]amino}-3-(4-chlorophenyl)propionic acid] as the compound, how does the IC50 read?
**A.** 3 µM

**Q.** With O=C(N[C@@H](C[S+]([O-])Cc1ccccc1)C(=O)O)c1nc(-c2ccc(C(F)(F)F)cc2)oc1-c1cccnc1N1CCCCC1 (stereo partly drawn) [Compound 30, (R)-3-Phenylmethanesulfinyl-2-{[5-(3,4,5,6-tetrahydro-2H-[1,2′]bipyridin-3′-yl)-2-(4-trifluoromethylphenyl)oxazole-4-carbonyl]amino}propionic acid] as the compound, how does the IC50 read?
**A.** 29.2 µM

**Q.** How did the IC50 turn out when Cn1cc(-c2oc(-c3ccc(C(F)(F)F)cc3)nc2C(=O)N[C@@H](COCc2ccccc2)C(=O)O)c2ccccc21 [Compound 47, (S)-3-Benzyloxy-2-{[5-(1-methyl-1H-indol-3-yl)-2-(4-trifluoromethylphenyl)oxazole-4-carbonyl]amino}propionic acid] was run?
**A.** 54 µM

**Q.** O=C(N[C@@H](CSCc1ccccc1)C(=O)O)c1nc(-c2ccc(C(F)(F)F)cc2)oc1-c1ccc(-c2noc(C(F)(F)F)n2)cc1 [Compound 50, (R)-3-Benzylsulfanyl-2-{[5-[4-(5-trifluoromethyl[1,2,4]oxadiazol-3-yl)phenyl]-2-(4-trifluoromethylphenyl)oxazole-4-carbonyl]amino}propionic acid] was tested. Which IC50 did it give?
**A.** 64.3 µM

**Q.** With O=C(NC(Cc1ccc(Cl)cc1)C(=O)O)c1cc(-c2ccc(-c3ccccc3)cc2)nn1-c1ccc(C(F)(F)F)cc1 (centres unmarked) [Compound 76, 2-{[5-Biphenyl-4-yl-2-(4-trifluoromethylphenyl)-2H-pyrazole-3-carbonyl]amino}-3-(4-chlorophenyl)propionic acid] as the compound, how does the IC50 read?
**A.** 19.6 µM

**Q.** Which IC50 does the source give for O=C(NC(CSCc1ccccc1)C(=O)O)c1nc(-c2ccc(Oc3ccccc3)cc2)oc1-c1ccc(Cl)nc1Cl (centres unmarked) [Compound 36, 3-Benzylsulfanyl-2-{[5-(2,6-dichloropyridin-3-yl)-2-(4-phenoxyphenyl)oxazole-4-carbonyl]amino}propionic acid] here?
**A.** 3.3 µM

**Q.** O=C(N[C@@H](COCc1ccccc1)C(=O)O)c1nc(-c2ccc(C(F)(F)F)cc2)oc1-c1cccnc1Cl [Compound 24, (S)-3-Benzyloxy-2-{[5-(2-chloropyridin-3-yl)-2-(4-trifluoromethylphenyl)oxazole-4-carbonyl]amino}propionic acid] was tested. Which IC50 did it give?
**A.** 80.5 µM

**Q.** For O=C(N[C@@H](COCc1ccccc1)C(=O)O)c1nc(-c2ccc(-c3ccccc3)cc2)oc1-c1cnc(Cl)c(Cl)c1 [Compound 44, (S)-3-Benzyloxy-2-{[2-biphenyl-4-yl-5-(5,6-dichloropyridin-3-yl)oxazole-4-carbonyl]amino}propionic acid], which IC50 is on record?
**A.** 3.3 µM

**Q.** How did the IC50 turn out when O=C(N[C@@H](Cc1ccc(Cl)cc1)C(=O)O)c1nc(-c2ccc(C(F)(F)F)cc2)oc1-c1ccc2ccccc2n1 [Compound 28, (S)-3-(4-Chlorophenyl)-2-{[5-quinolin-2-yl-2-(4-trifluoromethylphenyl)oxazole-4-carbonyl]amino}propionic acid] was run?
**A.** 3.6 µM

**Q.** O=C(N[C@@H](CSCc1ccccc1)C(=O)O)c1nc(-c2ccc(C(F)(F)F)cc2)oc1-c1ccc(-c2ccsc2)cc1 [Compound 20, (R)-3-Benzylsulfanyl-2-{[5-(4-thien-3-yl-phenyl)-2-(4-trifluoromethylphenyl)oxazole-4-carbonyl]amino}propionic acid] was tested. Which IC50 did it give?
**A.** 3.3 µM

**Q.** How did the IC50 turn out when O=C(N[C@@H](CSCc1ccccc1)C(=O)O)c1nc(-c2ccc(C(F)(F)F)cc2)oc1-c1cccnc1Cl [Compound 25, (R)-3-Benzylsulfanyl-2-{[5-(2-chloropyridin-3-yl)-2-(4-trifluoromethylphenyl)oxazole-4-carbonyl]amino}propionic acid] was run?
**A.** 62.6 µM

**Q.** For O=C(NC(Cc1ccc(Cl)cc1)C(=O)O)c1nc(-c2cccc3ccccc23)oc1-c1ccc(C(F)(F)F)nc1 (centres unmarked) [Compound 58, 3-(4-Chlorophenyl)-2-{[2-naphthalen-1-yl-5-(6-trifluoromethylpyridin-3-yl)oxazole-4-carbonyl]amino}propionic acid], which IC50 is on record?
**A.** 4.2 µM

**Q.** How did the IC50 turn out when CC(=O)N1CCN(c2ncccc2-c2oc(-c3ccc(C(F)(F)F)cc3)nc2C(=O)NC(Cc2ccc(Cl)cc2)C(=O)O)CC1 (centres unmarked) [Compound 32, 2-{[5-[2-(4-Acetylpiperazin-1-yl)pyridin-3-yl]-2-(4-trifluoromethylphenyl)oxazole-4-carbonyl]amino}-3-(4-chlorophenyl)propionic acid] was run?
**A.** 77.3 µM

**Q.** For O=C(N[C@@H](COCc1ccccc1)C(=O)O)c1nc(-c2ccc(Oc3ccccc3)cc2)oc1-c1cnc(Cl)c(Cl)c1 [Compound 40, (S)-3-Benzyloxy-2-{[5-(5,6-dichloropyridin-3-yl)-2-(4-phenoxyphenyl)oxazole-4-carbonyl]amino}propionic acid], which IC50 is on record?
**A.** 5.2 µM

**Q.** How did the IC50 turn out when O=C(N[C@@H](CSCc1ccccc1)C(=O)O)c1nc(-c2ccc(C(F)(F)F)cc2)oc1-c1ccc2ccccc2n1 [Compound 26, (R)-3-Benzylsulfanyl-2-{[5-quinolin-2-yl-2-(4-trifluoromethylphenyl)oxazole-4-carbonyl]amino}propionic acid] was run?
**A.** 5.8 µM

**Q.** With N=C(NO)c1ccc(-c2oc(-c3ccc(C(F)(F)F)cc3)nc2C(=O)N[C@@H](CSCc2ccccc2)C(=O)O)cc1 [Compound 49, (R)-3-Benzylsulfanyl-2-{[5-[4-(N-hydroxycarbamimidoyl)phenyl]-2-(4-trifluoromethylphenyl)oxazole-4-carbonyl]amino}propionic acid] as the compound, how does the IC50 read?
**A.** 34.7 µM
